Our source for the Kd values is paper PMC12087296 (Microbial Biotechnology, 2025).

Where two headings read alike, the source gives them in different places.

Assay [1] concerns the target T1, TlpQ (Pseudomonas aeruginosa, UniProt Q9I0I4). The experiment in a line: isothermal titration calorimetry, […]°C. It counts as binding. For orientation: Isothermal titration calorimetry measures the heat released or taken up as one component is titrated into another.
Assay [2] has as its target T1, TlpQ. The assay can be described thus: isothermal titration calorimetry, […]°C. It counts as binding. The source holds these as a separate data set.

T1 sequence (Q9I0I4 33-363 limits assumed): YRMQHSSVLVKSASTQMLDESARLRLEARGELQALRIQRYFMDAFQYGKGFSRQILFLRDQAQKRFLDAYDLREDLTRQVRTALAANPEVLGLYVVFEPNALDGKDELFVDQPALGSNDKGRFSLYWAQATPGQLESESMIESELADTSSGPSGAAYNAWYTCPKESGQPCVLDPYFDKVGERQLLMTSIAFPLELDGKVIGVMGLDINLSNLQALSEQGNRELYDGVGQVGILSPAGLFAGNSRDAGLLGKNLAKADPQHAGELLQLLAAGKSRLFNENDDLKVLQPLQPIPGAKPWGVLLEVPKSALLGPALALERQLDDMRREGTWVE

Usually Kd stands for the constant that tells how readily two partners part at equilibrium. Turning to `NCCc1ccc(O)c(O)c1` [dopamine], the Kd in assay [1] stood at 137 µM.

For `CNC[C@H](O)c1ccc(O)c(O)c1` [epinephrine], in assay [2], the Kd worked out at 363 µM.
